In ChEMBL document CHEMBL1127689, “Novel 4-(aryloxy)tetrahydropyridine analogs of MPTP as monoamine oxidase A and B substrates” (J Med Chem, 1994):

Assay: Relative specificity for human MAO-A and bovine MAO-B

Compound | Selectivity
CN1CC=C(c2ccccc2)CC1 | 0.27
CN1CC=C(Oc2ccc(Cl)cc2Cl)CC1 | 2.47
CCCCc1ccc(OC2=CCN(C)CC2)cc1 | 1.54
CN1CC=C(Cc2ccccc2)CC1 | 0.11
CN1CC=C(Cc2ccc3ccccc3c2)CC1 | 10.8
CN1CC=C(Cc2cccc3ccccc23)CC1 | 24.7

Further lines, results first:

Selectivity | Compound
4.72 | CN1CC=C(Oc2ccc(-c3ccccc3)cc2)CC1
2.21 | CN1CC=C(Oc2ccc3ccccc3c2)CC1
2.17 | CN1CC=C(Oc2ccc(C(C)(C)C)cc2)CC1
0.57 | CN1CC=C(Oc2ccccc2)CC1
2.77 | CN1CC=C(Oc2cccc3ccccc23)CC1
